Experimental data as given in US10227350B2 (Gilead Sciences, Inc., priority 2016, dated 2019).

biological target: PI3Kβ (Homo sapiens (Human), UniProt P42338); assay: TR-FRET enzymatic activity assay, PI3Kβ; type: biochemical; conditions: 2× Km ATP, 2 μM PIP2, 30 minutes at 25° C., read-out: IC50-PIP-Beta
Procedure, shortened: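 Purified recombinant heterodimeric PI3Kβ; PIP3 formation read by TR-FRET as competition with fluorescent tracer for GRP-1 PH domain binding. Compounds incubated 30 min at 25 °C.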

PI3Kβ, sequence (P42338 whole entry, the tested form may be a part): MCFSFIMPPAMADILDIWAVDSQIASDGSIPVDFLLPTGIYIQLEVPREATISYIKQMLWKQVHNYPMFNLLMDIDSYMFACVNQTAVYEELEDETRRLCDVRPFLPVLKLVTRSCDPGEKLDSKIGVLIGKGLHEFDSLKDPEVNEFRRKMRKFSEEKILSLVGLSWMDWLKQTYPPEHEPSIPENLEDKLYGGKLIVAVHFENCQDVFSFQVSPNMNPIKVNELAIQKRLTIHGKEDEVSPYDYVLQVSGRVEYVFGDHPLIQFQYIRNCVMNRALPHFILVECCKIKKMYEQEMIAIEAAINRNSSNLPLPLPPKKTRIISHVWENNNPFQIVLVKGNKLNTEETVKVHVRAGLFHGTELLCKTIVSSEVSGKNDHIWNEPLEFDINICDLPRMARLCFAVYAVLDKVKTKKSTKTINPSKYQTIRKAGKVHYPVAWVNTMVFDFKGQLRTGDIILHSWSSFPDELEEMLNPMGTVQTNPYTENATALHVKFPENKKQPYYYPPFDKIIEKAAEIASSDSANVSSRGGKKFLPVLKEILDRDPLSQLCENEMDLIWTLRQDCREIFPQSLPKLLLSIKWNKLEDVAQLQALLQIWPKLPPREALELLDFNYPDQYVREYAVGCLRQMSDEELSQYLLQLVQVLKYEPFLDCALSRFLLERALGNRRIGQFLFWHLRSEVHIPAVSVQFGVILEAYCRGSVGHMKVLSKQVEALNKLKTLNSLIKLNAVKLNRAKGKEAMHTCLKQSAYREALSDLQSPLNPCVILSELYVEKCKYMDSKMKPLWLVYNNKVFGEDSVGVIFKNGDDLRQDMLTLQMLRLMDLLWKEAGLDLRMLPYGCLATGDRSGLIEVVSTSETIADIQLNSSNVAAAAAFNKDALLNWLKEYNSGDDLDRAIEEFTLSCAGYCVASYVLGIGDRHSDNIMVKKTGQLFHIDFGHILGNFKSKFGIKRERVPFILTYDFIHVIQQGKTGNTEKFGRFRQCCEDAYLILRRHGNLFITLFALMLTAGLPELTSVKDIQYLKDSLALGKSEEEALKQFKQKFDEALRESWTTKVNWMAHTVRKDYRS
PI3Kβ, sequence (P27986 whole entry partner, the tested form may be a part): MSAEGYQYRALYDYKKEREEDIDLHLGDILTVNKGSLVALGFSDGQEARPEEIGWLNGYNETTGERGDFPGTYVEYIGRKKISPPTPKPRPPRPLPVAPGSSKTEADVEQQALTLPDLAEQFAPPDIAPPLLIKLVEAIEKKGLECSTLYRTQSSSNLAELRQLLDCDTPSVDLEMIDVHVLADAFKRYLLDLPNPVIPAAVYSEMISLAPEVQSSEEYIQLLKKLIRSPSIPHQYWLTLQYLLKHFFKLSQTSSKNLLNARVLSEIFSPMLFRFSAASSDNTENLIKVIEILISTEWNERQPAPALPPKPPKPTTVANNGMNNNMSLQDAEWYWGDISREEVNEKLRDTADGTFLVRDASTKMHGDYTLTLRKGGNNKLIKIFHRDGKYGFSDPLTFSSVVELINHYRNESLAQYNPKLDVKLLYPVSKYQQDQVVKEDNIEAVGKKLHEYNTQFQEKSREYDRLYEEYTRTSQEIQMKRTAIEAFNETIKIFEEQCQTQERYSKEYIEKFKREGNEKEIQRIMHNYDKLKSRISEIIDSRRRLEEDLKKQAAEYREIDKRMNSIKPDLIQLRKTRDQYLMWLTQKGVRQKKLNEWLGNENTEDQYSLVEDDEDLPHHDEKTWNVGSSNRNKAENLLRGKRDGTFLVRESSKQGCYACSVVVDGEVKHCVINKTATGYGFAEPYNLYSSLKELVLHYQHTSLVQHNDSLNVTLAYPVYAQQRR

Row | SMILES | IC50 [nM]
1 | CCc1nc2c(-c3nnc[nH]3)cc(-c3ccnc(N)c3F)cc2n1-c1ccnc2c(F)ccc(F)c12 [Example 95, 4-[3-(5,8-difluoroquinolin-4-yl)-2-ethyl-7-(4H-1,2,4-triazol-3-yl)benzimidazol-5-yl]-3-fluoropyridin-2-amine] | 5
2 | Fc1nccc(-c2cc(-c3nnc[nH]3)c3ncn(-c4ccnc5c(F)ccc(F)c45)c3c2)c1F [Example 47, 4-[6-(2,3-difluoropyridin-4-yl)-4-(4H-1,2,4-triazol-3-yl)benzimidazol-1-yl]-5,8-difluoroquinoline] | 46
3 | Cc1nc2c(-c3nnc[nH]3)cc(-c3ccnc(N)c3F)cc2n1-c1ccnc2c(Cl)ccc(Cl)c12 (single isomer, unassigned) [Example 120, 4-(1-(5,8-dichloroquinolin-4-yl)-2-methyl-4-(4H-1,2,4-triazol-3-yl)-1H-benzo[d]imidazol-6-yl)-3-fluoropyridin-2-amine] | 4
4 | N#Cc1cc(-c2cc(-c3nnc[nH]3)c3ncn(-c4cc(N5CCNCC5)nc5ccccc45)c3c2)ccn1 [Example 167, 4-(1-(2-(piperazin-1-yl)quinolin-4-yl)-4-(4H-1,2,4-triazol-3-yl)-1H-benzo[d]imidazol-6-yl)picolinonitrile] | 10
5 | Nc1nccc(-c2cc(-c3nnc[nH]3)c3nc(CC4CC4)n(-c4ccnc5c(F)ccc(F)c45)c3c2)c1F [Example 96, 4-[2-(cyclopropylmethyl)-3-(5,8-difluoroquinolin-4-yl)-7-(4H-1,2,4-triazol-3-yl)benzimidazol-5-yl]-3-fluoropyridin-2-amine] | 7
6 | Cc1nc2c(C(N)=O)cc(-c3ccncc3)cc2n1-c1ccnc2c(Cl)ccc(F)c12 [Example 11, 1-(8-chloro-5-fluoroquinolin-4-yl)-2-methyl-6-pyridin-4-ylbenzimidazole-4-carboxamide] | 3

The remaining compounds from weak to strong by IC50, led by results:

Row | IC50 [nM] | SMILES
7 | 360 | Cc1nc2c(-c3nnc[nH]3)cc(-c3ccnc(C#N)c3)cc2n1-c1ccnc2c(F)cccc12 (single isomer, unassigned) [Example 128, 4-(1-(8-fluoroquinolin-4-yl)-2-methyl-4-(4H-1,2,4-triazol-3-yl)-1H-benzo[d]imidazol-6-yl)picolinonitrile]
8 | 110 | Cc1nc2c(-c3nnc[nH]3)cc(-c3ccnc(C#N)c3)cc2n1-c1ccnc2cccc(Cl)c12 (single isomer, unassigned) [Example 125, 4-(1-(5-chloroquinolin-4-yl)-2-methyl-4-(4H-1,2,4-triazol-3-yl)-1H-benzo[d]imidazol-6-yl)picolinonitrile]
9 | 30 | Cc1nc2c(-c3nnc[nH]3)cc(-c3ccnc(C#N)c3)cc2n1-c1ccnc2cc(F)cc(F)c12 (single isomer, unassigned) [Example 116, 4-(1-(5,7-difluoroquinolin-4-yl)-2-methyl-4-(4H-1,2,4-triazol-3-yl)-1H-benzo[d]imidazol-6-yl)picolinonitrile]
10 | 26 | Cc1cc(-n2c(C)nc3c(-c4nnc[nH]4)cc(-c4ccncc4)cc32)c2ccccc2n1 [Example 34, 2-methyl-4-[2-methyl-6-pyridin-4-yl-4-(4H-1,2,4-triazol-3-yl)benzimidazol-1-yl]quinoline]
11 | 13 | Cc1nc2c(C(N)=O)cc(-c3ccnc(N)c3F)cc2n1-c1ccnc2c(F)ccc(F)c12 [Example 26, 6-(2-amino-3-fluoropyridin-4-yl)-1-(5,8-difluoroquinolin-4-yl)-2-methyl-1H-benzo[d]imidazole-4-carboxamide]
12 | 4 | Cc1nc2c(-c3nnc[nH]3)cc(-c3ccnc(C#N)c3)cc2n1-c1ccnc2cccc(F)c12 [Example 147, 4-(1-(5-fluoroquinolin-4-yl)-2-methyl-4-(4H-1,2,4-triazol-3-yl)-1H-benzo[d]imidazol-6-yl)picolinonitrile]
13 | 3 | Cc1nc2c(-c3nnc[nH]3)cc(-c3ccnc(N)c3)cc2n1-c1ccnc2c(Cl)ccc(F)c12 [Example 51, 4-[3-(8-chloro-5-fluoroquinolin-4-yl)-2-methyl-7-(4H-1,2,4-triazol-3-yl)benzimidazol-5-yl]pyridin-2-amine]
